Activity calls are given as the source filed them. The calls are words filed in the database; no cut-off is given here.
Tests used:
Format in all cases: cell-based
[1] = target: T1, E3 ubiquitin-protein ligase UHRF1 (Homo sapiens) (UniProt Q96T88); assay: Inhibition of UHRF1 in human MCF7 cells assessed as DNA global demethylation by measuring 5-methylcytosine level at 15 uM after 72 hrs by HPLC-MS/MS analysis (reference value: 1.7 +/- 0.36%); design: scale not given: the % may be the effect or the level left
T1 sequence (whole entry): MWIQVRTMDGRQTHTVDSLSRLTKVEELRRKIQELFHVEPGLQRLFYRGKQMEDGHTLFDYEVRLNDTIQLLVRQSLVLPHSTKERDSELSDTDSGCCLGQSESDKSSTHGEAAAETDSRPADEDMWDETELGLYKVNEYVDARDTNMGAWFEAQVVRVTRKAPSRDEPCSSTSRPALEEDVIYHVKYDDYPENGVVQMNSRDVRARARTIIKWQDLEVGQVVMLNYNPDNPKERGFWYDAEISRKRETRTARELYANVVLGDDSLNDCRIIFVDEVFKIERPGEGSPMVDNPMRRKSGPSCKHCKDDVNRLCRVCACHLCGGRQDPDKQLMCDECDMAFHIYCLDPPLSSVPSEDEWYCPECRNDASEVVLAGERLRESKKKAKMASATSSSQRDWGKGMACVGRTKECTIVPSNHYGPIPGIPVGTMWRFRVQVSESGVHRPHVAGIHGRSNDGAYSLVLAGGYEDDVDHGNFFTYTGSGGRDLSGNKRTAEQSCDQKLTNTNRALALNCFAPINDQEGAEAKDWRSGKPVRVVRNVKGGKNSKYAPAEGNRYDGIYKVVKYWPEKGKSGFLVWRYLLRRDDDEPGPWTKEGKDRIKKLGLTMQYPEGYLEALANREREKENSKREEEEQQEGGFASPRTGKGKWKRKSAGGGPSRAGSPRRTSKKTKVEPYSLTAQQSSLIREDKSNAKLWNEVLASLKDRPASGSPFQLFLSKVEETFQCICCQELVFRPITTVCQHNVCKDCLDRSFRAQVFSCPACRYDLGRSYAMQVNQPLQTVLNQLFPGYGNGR

[2] = target: T1, E3 ubiquitin-protein ligase UHRF1 (Homo sapiens); assay: Inhibition of UHRF1 in human MCF7 cells assessed as decrease in methylation at RAR beta exon at 15 uM after 72 hrs by methylation specific-PCR method
[3] = target: T1, E3 ubiquitin-protein ligase UHRF1 (Homo sapiens); assay: Inhibition of UHRF1 in human MCF7 cells assessed as reduction in global 5-methylcytosine level at 15 uM after 72 hrs by HPLC-MS/MS analysis relative to control
[4] = target: T1, E3 ubiquitin-protein ligase UHRF1 (Homo sapiens); assay: Inhibition of UHRF1/DNMT1 protein interaction in human U251 cells assessed as reduction in 5-methylcytosine level at 15 uM after 72 hrs by ELISA relative to control; settings: U-251
[5] = target: T1, E3 ubiquitin-protein ligase UHRF1 (Homo sapiens); assay: Inhibition of UHRF1/DNMT1 protein interaction in human U251 cells at 15 uM after 4 hrs by DAPI staining based P-LISA; settings: U-251

SMILES	Activity [1] [%]	RAR beta exon methylation decrease (activity call) [2]	inhibition [3] [%]	inhibition [2]	inhibition [4] [%]	inhibition [5] [%]
CN(C)c1c[nH]c(=O)[nH]c1=O	0.86	Active				
CC(=O)c1c[nH]c(=O)[nH]c1=O	0.74	Active	56			
CCOC(=O)c1cnc(=O)[nH]c1N	0.87	Active				
O=C1NC(=O)C2(CC2)C(=O)N1	0.82			Active		
Nc1ncn([C@@H]2O[C@H](CO)[C@@H](O)[C@H]2O)c(=O)n1	0.88	Active	48			
C/C(NO)=C1\C=NC(=O)NC1=O					50	50
c1ccc2c(C3CCN(CCN4CCOCC4)C3)c[nH]c2c1 (stereo unspecified)	0.99	Active				

— ChEMBL document CHEMBL3779829, “Tandem virtual screening targeting the SRA domain of UHRF1 identifies a novel chemical tool modulating DNA methylation” (Eur J Med Chem, 2016)
